From ChEMBL document CHEMBL1143140, “RCAI-8, 9, 18, 19, and 49-52, conformationally restricted analogues of KRN7000 with an azetidine or a pyrrolidine ring: Their synthesis and bioactivity for mouse natural killer T cells to produce cytokines” (Bioorg Med Chem, 2008) come the findings set out here.

Calls of active or inactive are those of the source. The calls are words filed in the database; no cut-off is given here.

What all share (type): functional, cell-based
For assay [1], the system named is Splenocyte. Kind of assay: Induction of IL4 production in C57BL/6 mouse splenocytes after 48 hrs by cytometric bead array method.
For assay [2], the system named is Splenocyte. Kind of assay: Induction of IL13 production in C57BL/6 mouse splenocytes after 48 hrs by cytometric bead array method.
In assay [3] the test system is Splenocyte. Put plainly: Induction of IL10 production in C57BL/6 mouse splenocytes after 48 hrs by cytometric bead array method.
For assay [4], the system named is Splenocyte. Kind of assay: Induction of IL2 production in C57BL/6 mouse splenocytes after 48 hrs by cytometric bead array method.
The subject of assay [5] is Splenocyte. Put plainly: Induction of IFN-gamma production in C57BL/6 mouse splenocytes after 48 hrs by cytometric bead array method.

In the case of `CCCCCCCCCCCCCCCCCCCCCCCCCC(=O)N1[C@H](CCCCCCCCCCCCCC)[C@@H](O)[C@@H]1CO[C@@H]1O[C@H](CO)[C@H](O)[C@H](O)[C@H]1O`, the result in the assay with Splenocyte [1], in the assay with Splenocyte [2], in the assay with Splenocyte [3], in the assay with Splenocyte [4] and in the assay on Splenocyte [5] was inactive.
As to `CCCCCCCCCCCCCCCCCCCCCCCCCC(=O)N1[C@@H](CCCCCCCCCCCCC)C[C@@H](O)[C@@H]1CO[C@@H]1O[C@H](CO)[C@H](O)[C@H](O)[C@H]1O`, the result in the assay with Splenocyte [1], with Splenocyte [2], with Splenocyte [3], with Splenocyte [4] and in the assay on Splenocyte [5] was inactive.
For `CCCCCCCCCCCCCCCCCCCCCCCCCC(=O)N1[C@H](CCCCCCCCCCCCC)C[C@@H](O)[C@@H]1CO[C@@H]1O[C@H](CO)[C@H](O)[C@H](O)[C@H]1O`, the result in the assay on Splenocyte [1], with Splenocyte [2], with Splenocyte [3], in the assay with Splenocyte [4] and with Splenocyte [5] was inactive.
With `CCCCCCCCCCCCCCCCCCCCCCCCCC(=O)N1[C@@H](CCCCCCCCCCCCCC)[C@@H](O)[C@@H]1CO[C@@H]1O[C@H](CO)[C@H](O)[C@H](O)[C@H]1O`, the outcome with Splenocyte [1], with Splenocyte [2], in the assay with Splenocyte [3], in the assay on Splenocyte [4] and with Splenocyte [5] was inactive.
For the compound `CCCCCCCCCCCCCCCCCCCCCCCCCC(=O)N1[C@@H](CCCCCCCCCCCCCC)[C@@H](O)[C@@H]1CO[C@H]1O[C@H](CO)[C@H](O)[C@H](O)[C@H]1O`, the outcome in the assay on Splenocyte [1], in the assay with Splenocyte [2], in the assay with Splenocyte [3], in the assay with Splenocyte [4] and in the assay with Splenocyte [5] was Active.
Consider `CCCCCCCCCCCCCCCCCCCCCCCCCC(=O)N1[C@H](CCCCCCCCCCCCCC)[C@@H](O)[C@@H]1CO[C@H]1O[C@H](CO)[C@H](O)[C@H](O)[C@H]1O`, for which the result in the assay with Splenocyte [1], in the assay on Splenocyte [2], in the assay with Splenocyte [3], in the assay on Splenocyte [4] and with Splenocyte [5] was inactive.
For the compound `CCCCCCCCCCCCCCCCCCCCCCCCCC(=O)N1[C@@H](CCCCCCCCCCCCC)C[C@@H](O)[C@@H]1CO[C@H]1O[C@H](CO)[C@H](O)[C@H](O)[C@H]1O`, the outcome with Splenocyte [1], with Splenocyte [2], in the assay with Splenocyte [3], in the assay on Splenocyte [4] and in the assay on Splenocyte [5] was inactive.
With `CCCCCCCCCCCCCCCCCCCCCCCCCC(=O)N1[C@H](CCCCCCCCCCCCC)C[C@@H](O)[C@@H]1CO[C@H]1O[C@H](CO)[C@H](O)[C@H](O)[C@H]1O`, the outcome in the assay with Splenocyte [1], with Splenocyte [2], in the assay on Splenocyte [3], with Splenocyte [4] and in the assay with Splenocyte [5] was Active.
